Read-outs that look alike come from different tables or passages of the source.
Columns and labels:
[1] = Radical scavenging activity of ABTS; conditions: for EC50: isolated components (Table 4), read-out: SC50 ABTS
Experimental: According to the method reported in [49], ABTS solution (28 mM) was mixed with potassium permanganate solution (9.6 mM) in an equal ratio (v/v = 1:1) and allowed to react at room temperature in the dark for 16 h to generate the ABTS radical solution. The ABTS radical solution was then diluted with EtOH until the absorbance reached 0.70 ± 0.02 at 740 nm. The tested samples were subsequently diluted to the desired concentrations with EtOH. In a 96-well plate, the ABTS radical solution (190 μL) was mixed with the sample solution (10 μL) and was allowed to react at room temperature for 6 min in the dark. The absorbance was then measured at 740 nm using an ELISA reader. The scavenging activity was calculated using the following equation. Scavenging rate (%) = (Acontrol − Asample)/Acontrol × 100% where Acontrol was the absorbance of the control and Asample was that of the tested sample.

[2] = Radical scavenging activity of DPPH; conditions: for EC50: isolated components (Table 4), read-out: SC50 DPPH
Experimental: According to the method reported in [48], a DPPH radical solution (400 μM) was prepared in EtOH. The tested samples were diluted to the desired concentrations with EtOH. In a 96-well plate, diluted tested sample solution (100 μL) was mixed with 100 μL of the DPPH radical solution (200 μM). The mixture was allowed to react at room temperature for 30 min in the dark. After the reaction, the absorbance at 520 nm was measured using an ELISA reader (TECAN Sunrise, Männedorf, Schweiz). The scavenging activity was calculated using the following equation. Scavenging rate (%) = (Acontrol − Asample)/Acontrol × 100% where Acontrol was the absorbance of the control and Asample was that of the tested sample.

[3] = Ferric reducing antioxidant power (FRAP)
Experimental: According to the previously published methods, acetate buffer (pH 3.6), FeCl3 solution (20 mM), and 10 m TPTZ solution (prepared in 40 mM HCl) were mixed in a ratio of 10:1:1 to generate the FRAP working solution. Then, the working solution was warmed to 37 °C before being used. The diluted sample, blank, or standard solution (100 µL) was mixed with the warm-up working solution (900 µL) and incubated for 40 min in a dry bath at 37 °C. The absorbance at 593 nm was measured using an ELISA reader. The standard curve was linear from 0 to 100 mM Trolox, and the data were expressed as mM TE/g dry weight.

[4] = target: T1, acetylcholinesterase (AChE) (Electrophorus electricus, UniProt O42275); test: biochemical
T1 construct: purchased Sigma-Aldrich
Experimental: The AChE inhibition was carried out based on the previous method. The sodium phosphate buffer (pH 8.0, 0.1 M, 140 μL), DTNB (10 μL), tested sample (20 μL), and AChE solution (15 μL) were mixed in a 96-well plate. After incubating at room temperature for 10 min, the absorbance was measured at 405 nm. The inhibitory effect was calculated by the following equation. Acetylcholinesterase inhibition (%) = (Acontrol − Asample)/Acontrol × 100% where Asample and Acontrol represent the absorbance values of the tested sample and control, respectively.

α-glucosidase = target: T2, α-glucosidase (Saccharomyces cerevisiae, UniProt P53341); test: Enzyme inhibition assay of α-glucosidase; format: biochemical, S. cerevisiae
T2 construct: purchased Sigma-Aldrich
Experimental: The inhibitory activity of α-glucosidase was determined based on the previously reported method. The α-glucosidase solution was prepared with sodium phosphate buffer (pH 6.8, 0.1 M) and diluted to 1 U/mL. Subsequently, the tested sample solution (100 µL), diluted α-glucosidase solution (20 µL), and 0.53 mM p-NPG (380 µL) were mixed and incubated at 37 °C for 40 min. […] The activity was calculated by the following equation. α-Glucosidase inhibition (%) = (Acontrol − Asample)/Acontrol × 100% where Asample and Acontrol represent the absorbance values of the tested sample and control, respectively.

[5] = Radical scavenging activity of superoxide; conditions: for EC50: isolated components (Table 4), read-out: SC50 Superoxide
Experimental: According to a previously reported procedure, the superoxide radical solution was prepared in Tris-HCl buffer (16 mM, pH 8.0) containing 300 µM NBT (50 µL), 120 µM PMS (50 µL), and tested sample solution (50 µL). […] The absorbance at 560 nm was measured using an ELISA reader, and the scavenging activity was calculated by the following equation. Scavenging rate (%) = (Acontrol − Asample)/Acontrol × 100% where Acontrol was the absorbance of the control and Asample was that of the tested sample.

[6] = tested on: NO production of LPS-induced RAW264.7 cells; test: LPS-induced NO inhibition assay (Griess); format: cell-based, Murine; conditions: Mus musculus, read-out: NO inhibition IC50
Experimental: LPS-induced NO production of RAW264.7 cells was determined by Griess assay. The 100 μL quantity of cells was seeded in 96-well plates at an amount of 5 × 10^4 cells/well and incubated for 24 h. The cells were then treated with 100 ng/mL LPS with vehicle or different concentrations of the tested sample for 24 h. […] The absorbance was measured at 540 nm to calculate the NO inhibition. Sodium nitrite was used to generate a standard curve.

[7] = tested on: iNOS expression in LPS-stimulated RAW264.7 cells; test: Western blot analysis of iNOS expression; format: cell-based, Murine; conditions: compared to the LPS group (100 ng/mL LPS)
[8] = solvent extracts, concentration causing 50% free radical scavenging
[9] = isolated components (Table 4), mM Trolox equivalents per g
[10] = 100 ng/mL LPS, 24 h, RAW264.7 cells

T1 sequence (O42275 24-633): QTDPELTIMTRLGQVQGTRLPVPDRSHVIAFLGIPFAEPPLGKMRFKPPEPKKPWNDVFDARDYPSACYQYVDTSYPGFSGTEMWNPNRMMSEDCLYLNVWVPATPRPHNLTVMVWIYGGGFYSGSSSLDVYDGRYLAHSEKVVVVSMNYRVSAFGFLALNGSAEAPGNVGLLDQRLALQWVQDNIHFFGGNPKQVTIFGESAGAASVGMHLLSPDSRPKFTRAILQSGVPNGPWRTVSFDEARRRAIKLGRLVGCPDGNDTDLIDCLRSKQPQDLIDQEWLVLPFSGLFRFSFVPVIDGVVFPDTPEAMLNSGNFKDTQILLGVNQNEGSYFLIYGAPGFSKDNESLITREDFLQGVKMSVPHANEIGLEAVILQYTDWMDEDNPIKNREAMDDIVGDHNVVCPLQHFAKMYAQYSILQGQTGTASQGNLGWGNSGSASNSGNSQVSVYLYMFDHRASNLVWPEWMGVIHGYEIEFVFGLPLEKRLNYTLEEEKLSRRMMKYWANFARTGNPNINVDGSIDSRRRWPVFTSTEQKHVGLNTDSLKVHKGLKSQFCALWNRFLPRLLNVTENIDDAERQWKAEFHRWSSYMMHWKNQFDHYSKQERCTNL
T2 sequence (P53341 whole entry): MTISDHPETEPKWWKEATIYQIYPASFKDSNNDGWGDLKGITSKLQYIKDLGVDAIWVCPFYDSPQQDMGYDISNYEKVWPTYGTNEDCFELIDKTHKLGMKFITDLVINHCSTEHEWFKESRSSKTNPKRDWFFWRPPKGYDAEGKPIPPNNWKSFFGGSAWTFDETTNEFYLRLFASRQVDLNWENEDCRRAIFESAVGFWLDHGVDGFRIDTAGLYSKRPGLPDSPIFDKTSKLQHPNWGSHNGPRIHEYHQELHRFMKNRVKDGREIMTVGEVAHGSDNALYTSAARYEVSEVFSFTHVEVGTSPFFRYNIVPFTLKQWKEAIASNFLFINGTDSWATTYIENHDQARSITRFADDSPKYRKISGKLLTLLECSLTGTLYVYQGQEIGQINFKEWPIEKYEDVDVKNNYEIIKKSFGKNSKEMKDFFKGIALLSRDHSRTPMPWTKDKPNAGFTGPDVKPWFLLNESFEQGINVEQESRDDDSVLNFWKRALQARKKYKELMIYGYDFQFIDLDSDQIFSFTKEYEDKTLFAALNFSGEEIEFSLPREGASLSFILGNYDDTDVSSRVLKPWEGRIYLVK

Structure (SMILES)	EC50 [1]	EC50 [2]	TE FRAP [3, 9]	IC50 ([4]; isolated components (Table 5))	EC50 [5]	IC50 [6, 10]	also measured
Cc1cc(C(C)(C)C)c(O)c(C(C)(C)C)c1 [BHT, reference compound]	25.87 ± 0.01 µM	881 ± 70.4 µM	3082.65 ± 213.69 ^B mM/g				SC50 ABTS [1, 8]: 29.95± 1.04 ^A μg/mL; SC50 DPPH [2, 8]: 230.05 ± 25.40 ^AB μg/mL; TE FRAP ([3]; solvent extracts (Table 2), mM Trolox equivalents per gram): 3370.27 ± 256.53 ^D mM/g
O=C(/C=C/c1ccc(O)c(O)c1)O[C@@H]1C[C@](O)(C(=O)O)C[C@@H](O)[C@H]1O [Chlorogenic acid, chlorogenic acid, reference compound]				320 ± 4.13 µM			IC50 ([4]; solvent extracts (Table 3)): 386 µM
C[C@H]1[C@H](C)CC[C@]2(C(=O)O)CC[C@]3(C)C(=CC[C@@H]4[C@@]5(C)C[C@@H](O)[C@H](O)C(C)(C)[C@@H]5CC[C@]43C)[C@H]12 [Corosolic acid (3), corosolic acid]	> 400 µM	> 400 µM	<1 mM/g	283 ± 17 µM	> 400 µM		IC50 (α-glucosidase; isolated components (Table 5), read-out: IC50 α-Glucosidase): 13.8 ± 2.11 µM
O=c1cc(-c2ccc(O)c(O)c2)oc2cc(O[C@@H]3O[C@H](CO)[C@@H](O)[C@H](O)[C@H]3O)cc(O)c12 [Cynaroside, cynaroside, reference compound]					38.3 ± 0.69 µM		SC50 Superoxide [5, 8]: 13.41 ± 2.56 ^A μg/mL
Oc1cc(O)c2c(c1)O[C@H](c1ccc(O)c(O)c1)[C@H](O)C2 [Epicatechin (5), epicatechin]	7.83 ± 0.34 µM	56.9 ± 0.91 µM	1694.43 ± 21.45 ^A mM/g	405 ± 26.3 µM	210 ± 9.46 µM	> 50 µM	IC50 (α-glucosidase): > 800 µM
CC1(C)CC[C@]2(C(=O)O)CC[C@]3(C)C(=CC[C@@H]4[C@@]5(C)CC[C@H](O)C(C)(C)[C@@H]5CC[C@]43C)[C@@H]2C1 [Oleanolic acid (1), oleanolic acid]	> 400 µM	> 400 µM	<1 mM/g		> 400 µM		IC50 ([6]; RAW264.7, 24 h): > 50 µM
O=c1c(O)c(-c2ccc(O)c(O)c2)oc2cc(O)cc(O)c12 [Quercetin, quercetin, reference compound]						17.1 ± 1.63 µM	
C[C@@H]1O[C@@H](OC[C@H]2O[C@@H](Oc3c(-c4ccc(O)c(O)c4)oc4cc(O)cc(O)c4c3=O)[C@H](O)[C@@H](O)[C@@H]2O)[C@H](O)[C@H](O)[C@H]1O [Rutin (6), rutin]	20 ± 0.3 µM	66.3 ± 1.68 µM	1609.10 ± 25.67 ^A mM/g	452 ± 12.9 µM	6.69 ± 0.25 µM		IC50 ([6]; RAW264.7, 24 h): 29.5 ± 1.19 µM
CC1CCC2(C(=O)O)CCC3(C)C(=CCC4C5(C)CC(O)C(O)C(C)(C)C5CCC43C)C2C1(C)O (stereo not shown) [Tormentic acid (4), tormentic acid]	> 400 µM	> 400 µM	<1 mM/g	281 ± 8.55 µM	> 400 µM	> 50 µM	IC50 (α-glucosidase): 320 ± 26.1 µM
C[C@H]1[C@H](C)CC[C@]2(C(=O)O)CC[C@]3(C)C(=CC[C@@H]4[C@@]5(C)CC[C@H](O)C(C)(C)[C@@H]5CC[C@]43C)[C@H]12 [Ursolic acid (2), ursolic acid]				311 ± 7.31 µM		20.2 ± 1.46 µM	Inhibition of iNOS expression ([7]; 10 μM): 26.7%; Inhibition of iNOS expression ([7]; 20 μM): 68.1%

— publication PMC12024191, “Pharmacological and Molecular Docking Investigation of Leaves of Eriobotrya japonica: Antioxidant, Enzyme Inhibition, and Anti-Inflammatory Effects” (Antioxidants, 2025)
